According to patent US9187749B2, “Methods for modulating factor 12 expression” (Isis Pharmaceuticals, Inc., priority 2011, dated 2015):
e = 2'-O-(2-methoxyethyl) (MOE); d = 2'-deoxy (DNA)

Columns and labels:
[1] = tested on: mice; assay: Evans Blue vascular permeability, ISIS 461756-induced model (Example 9); assay type: in vivo, mouse; details: all groups given ISIS 461756 12.5 mg/kg sc twice a week; test ASO 40 mg/kg sc twice a week 3 weeks; vs untreated PBS control
Method: (§1) Vascular permeability induced by ISIS 461756, an antisense oligonucleotide which targets murine C1 inhibitor mRNA, increases vascular permeability in mice and replicates the pathology of hereditary angioedema. The effect of ISIS 410944 on this model was evaluated.
(§2) One group of 8 mice was treated with 40 mg/kg ISIS 410944 administered subcutaneously twice a week for 3 weeks (weekly dose of 80 mg/kg). A second group of 8 mice was treated with 40 mg/kg of the control oligonucleotide, ISIS 141923, administered subcutaneously twice a week for 3 weeks (weekly dose of 80 mg/kg). A third group of 8 mice was treated with PBS administered subcutaneously twice a week for 3 weeks. On day 14, all the groups were treated with 12.5 mg/kg ISIS 461756 administered subcutaneously twice a week for 3 weeks (weekly dose of 25 mg/kg). A control group of mice was treated with PBS administered subcutaneously twice a week for 3 weeks but was not administered ISIS 461756.
(§3) At the end of the treatment period, all the groups were injected with 30 mg/kg of Evans Blue solution into the tail vein. The mice were sacrificed 30 min after the Evans Blue solution administration and colons, feet, ears, and intestines were harvested. The liver was also harvested for RNA analysis.
The harvested tissues from the feet, colon, and intestine were placed in formamide solution overnight to leach out the Evans Blue dye. The formamide solution containing feet tissue was heated to 55° C. and left overnight. The color intensity of the dye-infused formamide solution was then measured at OD600nm. The data is presented in Table 20 as percent increase or reduction compared to the PBS control not treated with ISIS 461756.

[2] = tested on: Factor 12 mRNA; assay: Liver RT-PCR of Factor 12 mRNA, C1-INH ASO-induced angioedema model (Example 9); assay type: in vivo, mouse; details: all groups given ISIS 461756 12.5 mg/kg sc twice a week, test ASO 40 mg/kg sc twice a week 3 weeks, vs PBS control not treated with ISIS 461756
Method: as §1, §2, §3
(§4) RNA was isolated from the liver for RT-PCR analysis of C1-INH and Factor 12 mRNAs. […]

[3] = tested on: C1-INH mRNA; assay: Liver RT-PCR of C1-INH mRNA, C1-INH ASO-induced angioedema model (Example 9); assay type: in vivo, mouse; details: all groups given ISIS 461756 12.5 mg/kg sc twice a week, test ASO 40 mg/kg sc twice a week 3 weeks, vs PBS control not treated with ISIS 461756
Method: as §1, §2, §3, §4

[4] = tested on: Factor 12; assay: Spectrozyme Factor 12a based amidolytic assay for Factor 12 activation in plasma (Example 8); assay type: in vivo; details: mouse plasma; for % F12 activation compared to the PBS control: dextran sulfate
Method: The effect of antisense inhibition of kallikrein (KLKB1) mRNA on Factor 12 protein activation was evaluated.
Group 1 consisted of 8 mice and was treated with PBS administered subcutaneously twice a week for 3 weeks. No other treatment was administered to Group 1 which served as a control group to measure Factor 12 activation.
Groups 2, 3, 4, 5, and 6 consisted of 8 mice each and were treated with 2.5 mg/kg, 5 mg/kg, 10 mg/kg, 20 mg/kg, or 40 mg/kg (corresponding to 5 mg/kg, 10 mg/kg, 20 mg/kg, 40 mg/kg, or 80 mg/kg per week), respectively of ISIS 482584 administered subcutaneously twice a week for 3 weeks. Groups 2-6 served as the treatment groups for measuring the effect of ISIS 482584 on Factor 12 activation.
At the end of the treatment period, plasma was harvested from the mice for the Spectrozyme® Factor 12a based amidolytic assay for Factor 12 in plasma.
Plasma (5 μL) was added to 85 μL of PBS with 1 ug/ml dextran sulfate (500 kDa) in a 96 well polypropelene microplate and the solution was incubated for 5 minutes at room temperature. Spectrozyme® FXIIa (10 μL of a 2 mM solution) and 0.2 mM KALLISTOP™ solution was added and the absorbance kinetic was measured at 405 nm. Factor 12 activation was measured in the linear phase of absorbance accumulation. The results are presented in Table 18 as a percentage of Factor 12 activation measured in the PBS control sample.

[5] = tested on: mice; assay: Vascular leakage, Evans Blue in plasma, captopril-induced (Example 4); assay type: in vivo, mouse; details: HOE-140 30 μg ip, percentage increase or decrease vs Group 1 PBS
Method: Groups 4, 5, 6, 7, 8, and 9 consisted of 8 mice each and were treated with 2.5 mg/kg, 5 mg/kg, 10 mg/kg, 20 mg/kg, 40 mg/kg, or 80 mg/kg (corresponding to 5 mg/kg, 10 mg/kg, 20 mg/kg, 40 mg/kg, 80 mg/kg, or 160 mg/kg per week), respectively, of ISIS 410944 administered subcutaneously twice a week for 3 weeks. At the end of the treatment period, the mice of all the groups were intraperitoneally administered 20 μg of captopril. Groups 4-9 served as the experimental treatment groups for examining the effect of varying doses of ISIS 410944 on captopril-induced vascular permeability.
All the groups were then injected with 30 mg/kg of Evans Blue solution in the tail vein. The mice were sacrificed 30 min after the Evans Blue solution administration and colons, feet, ears, and intestines were harvested. Blood samples were taken through cardiac puncture.
The blood drawn through cardiac puncture was immediately mixed with 3 times the volume of ice-cold ethanol. The solution was centrifuged at 15,000 g for 20 minutes at 4° C. to remove cell debris and precipitated plasma proteins. The ethanol extracts were further purified by ultra-filtration through a 10 kDa MWCO filter. The color intensity of the ethanol extracted plasma solution was then measured at OD620nm. The results are presented in Table 7 as percentage increase or decrease of the OD values of the Group 1 PBS control.

Substance | Percent change in vascular permeability, Colon [1] [%] | Percent change in vascular permeability, Feet [1] [%] | Percent change in vascular permeability, Intestines [1] [%] | Percent inhibition of mRNA expression, Factor 12 mRNA [2] [%] | further results
ISIS 141923: control oligonucleotide, a 5-10-5 MOE gapmer with no known murine target, CCTTCCCTGAAGGTTCCTCC; SEQ ID NO: 38 (sugars from the 5' end e5 d10 e5, backbone and methylation of C not given here) | 2 | 80 | 14 | 0 | Percent inhibition of mRNA expression, C1-INH mRNA [3]: 79%
ISIS 461756: 5-10-5 MOE gapmer AAAGTGGTTGATACCCTGGG (SEQ ID NO: 37) which targets murine C1 inhibitor mRNA; induces vascular permeability (sugars from the 5' end e5 d10 e5, backbone and methylation of C not given here) | 13 | 70 | 27 | 0 | 
ISIS 482584: 5-10-5 MOE gapmer targeting kallikrein (KLKB1), GGCATATTGGTTTTTGGAAT; SEQ ID NO: 39 (sugars from the 5' end e5 d10 e5, backbone and methylation of C not given here) |  |  |  |  | % F12 activation compared to the PBS control ([4]; 5 mg/kg/wk sc 3 weeks): 82%; % F12 activation compared to the PBS control ([4]; 10 mg/kg/wk sc 3 weeks): 63%; % F12 activation compared to the PBS control ([4]; 20 mg/kg/wk sc 3 weeks): 47%; % F12 activation compared to the PBS control ([4]; 40 mg/kg/wk sc 3 weeks): 24%; % F12 activation compared to the PBS control ([4]; 80 mg/kg/wk sc 3 weeks): 14%; activation of Factor 12 ([4]; 5-80 mg/kg/wk sc 3 weeks): decreased activation of Factor 12
HOE-140 |  |  |  |  | Percentage of OD620 nm of Evans Blue dye compared to the PBS basal control to measure vascular leakage, Plasma [5]: 70%
